Source: article PMC4237671 (Anesthesiology, 2014)
“Also recorded” adds a separate entry of the source. Read-outs that look alike come from different tables or passages of the source.

Key:
dogs [1] = assay: Observation of myoclonus during and after hypnotic infusion; settings: for Persistence of myoclonus in the postinfusion period: after 2-h infusions; for Incidence of myoclonus during infusion: for all studies
dogs [2] = assay: Pilot experiments of midazolam dosing in dogs; format: in vivo, beagle dog; settings: 0.1 - 0.2 mg/kg intravenous bolus per dose
[3] = Pharmacokinetics after single bolus followed by 2-h infusion
[4] = Pharmacokinetics after single IV bolus; settings: for Co: back-extrapolated; for Plasma concentration range during anesthetic recovery: after IV bolus, approximate
dogs [5] = format: in vivo, beagle dog
[6] = system: adrenocortical responsiveness to ACTH1-24 stimulation; assay: Adrenocortical recovery after hypnotic infusion; settings: for Plasma cortisol concentrations compared to vehicle group over time: after 2-h infusion, ACTH1-24 stimulated; for Shared Hill coefficient of in vivo adrenocortical concentration-response curves: both data sets fit to a single Hill coefficient
dogs [7] = assay: Pharmacodynamic modeling: plasma concentration vs anesthesia score; format: in vivo, beagle dog; settings: bolus, n = 3 dogs; for γ (slope parameter): sigmoid Emax fit; for EC anesthesia score 3: venous plasma concentration when anesthesia score is 3
dogs [8] = assay: Loss of righting reflexes; format: in vivo, beagle dog
rats [9] = settings: cited from earlier work
rats [10] = settings: cited from earlier work; remark: listed apart in the source
[11] = Stability testing of frozen formulated drug; format: physicochemical; settings: 8 mg/ml in 20% sulfobutylether-β-cyclodextrin pH 7.4, stored frozen at -20°C
[12] = metabolite, bolus followed by 2-h infusion of parent, n = 4 dogs
[13] = metabolite after IV bolus of parent, n = 3 dogs
[14] = CPMM vs etomidate 2-h infusion study, n = 4 dogs per group
[15] = IV bolus (CPMM 4 mg/kg, etomidate 2 mg/kg), n = 3 dogs
[16] = parent drug, IV bolus, n = 3 dogs, time zero to infinity
[17] = bolus followed by 2-h infusion, dogs
[18] = CPMM vs propofol 2-h infusion study, n = 4 dogs/group
[19] = parent drug, IV bolus, n = 3 dogs

Cc1ncc2n1-c1ccc(Cl)cc1C(c1ccccc1F)=NC2 [midazolam]
Effect on myoclonus (dogs [1]; 0.1 - 0.2 mg/kg intravenous bolus per dose during 2-h hypnotic infusions, dogs): effectively reduced the myoclonus | Sedative effect (dogs [2]): no discernable sedative effect

CC(c1ccccc1)n1cncc1C(=O)O (centres unmarked) [Etomidate Metabolite]
Cmax [3, 12]: 1,680 ±253 ng/ml | t1/2 [3, 12]: 69.3 ± 23.4 min | Plasma concentration in final blood samples 120 min after administration ([4]; after etomidate 2 mg/kg bolus, dogs): 708 ± 75 ng/mL | AUC [4, 13]: 236,000 ± 18,400 min·ng ml^−1 | Cmax [4, 13]: 2,370 ± 347 ng·ml^−1 | t1/2 [4, 13]: 61.4 ± 9.13 min | tmax [4, 13]: 18.3 ± 18.9 min

CCOC(=O)c1cncn1[C@H](C)c1ccccc1 [Etomidate, reference compound]
Cmax ([3]; beagle, dog, in vivo): 2050 ng/mL | Dogs with myoclonus during infusion (dogs [1]; [14]): 2 dogs | Persistence of myoclonus in the postinfusion period (dogs [1]; dogs): up to approximately an hour | Incidence of myoclonus during infusion (dogs [1]): 2/4 | Time after bolus administration of anesthetic recovery (dogs [5]; CPMM 4 mg/kg or etomidate 2 mg/kg bolus, see fig. 3B): 9.0 to 13.8 min | Co [4, 15]: 10,700 ± 1,440 ng/ml | Decrease of plasma concentration from initial to final blood sample (2 h) ([4]; IV bolus, dogs): 1.5 orders of magnitude | Plasma concentration at 10 min as percentage of initial blood sample ([4]; IV bolus, dogs): 25% | Plasma concentration range during anesthetic recovery ([4]; dogs): approximately 1,000 ng/ml | concentration at 30 s ([4]; beagle, dog, in vivo, 2 mg/kg): 9080 ng/mL | concentration at 10 min ([4]; beagle, dog, in vivo, 2 mg/kg): 2230 ng/mL | AUC ([4]; beagle, dog, in vivo, iv, 2 mg/kg, AUC, parent drug, IV bolus, n = 3 dogs, time zero to infinity): 1930 ng·h/mL | AUC [4, 16]: 139,000 ± 26,300 min-ng ml^−1 | Plasma cortisol concentrations compared to vehicle group over time ([6]; dogs): remained significantly lower than those in the vehicle group throughout the duration of the study (>300 min) | Shared Hill coefficient of in vivo adrenocortical concentration-response curves [6]: -2.0 | γ (slope parameter) (dogs [7]): 1.7 0.9 – 2.4 | EC anesthesia score 1 (dogs [7]; venous plasma concentration when anesthesia score is 1): 1,607 1,026 – 2,517 ng/ml | EC anesthesia score 3 (dogs [7]): 5,952 4,392 – 8,066 ng/ml | Duration of LoRR (dogs [8]; 0.5 mg/kg IV bolus, n = 3 dogs): 2.7 ± 0.8 min | Duration of LoRR (dogs [8]; 1.9 mg/kg IV bolus, n = 3 dogs): 17 ± 5 min | Relative hypnotic potency CPMM vs etomidate (dogs [8]; dogs): approximately twice as potent as CPMM | Bolus doses that induced LoRR in all dogs (dogs [8]; dogs, IV bolus): 0.5 to 1.9 mg/kg | Slope of duration of LoRR vs logarithm of dose (dogs [8]; dogs, IV bolus): 24 | X-intercept of duration of LoRR vs logarithm of dose (dogs [8]; dogs, IV bolus): 0.37 mg/kg

cyclopropyl-methoxycarbonyl metomidate [CPMM]
Decrease of plasma concentration from 30 to 60 min after the infusion ended [3, 17]: 22% | Half-life of decline beyond 30 min after infusion [3, 17]: ~ 90 min | Dogs with myoclonus during infusion (dogs [1]; [14]): 4 dogs | Dogs with myoclonus during infusion (dogs [1]; [18]): all four dogs had myoclonus | Persistence of myoclonus in the postinfusion period (dogs [1]; dogs): ceased within several minutes | Incidence of myoclonus during infusion (dogs [1]): 8/8 | Time to recover from anesthesia score 3 to score 0 (dogs [5]; bolus followed by 2-h infusion): 8 ± 3 min | Time to recover from anesthesia score 3 to score 2 (dogs [5]; bolus followed by 2-h infusion): 4.4 ± 1.3 min | Dependence of hypnotic recovery times on infusion duration (dogs [5]; bolus vs bolus plus 2-h infusion): independent of infusion duration | Recovery times from anesthesia score 3 to all lower scores compared to etomidate (dogs [5]; single bolus CPMM 4 mg/kg vs etomidate 2 mg/kg): significantly shorter | Time to recover from anesthesia score 3 to score 0 (dogs [5]; single bolus only (4 mg/kg)): 11 ± 3 min | Time to recover from anesthesia score 3 to score 1 (dogs [5]; single bolus only (4 mg/kg)): 5.5 ± 0.7 min | Time to recover from anesthesia score 3 to score 2 (dogs [5]; single bolus only (4 mg/kg)): 4.3 ± 1.2 min | Hypnotic ED50 (rats [9]): ~0.69 mg/kg | Slope of duration of hypnosis vs logarithm of dose (rats [9]): 6.9 | Hypnotic recovery time following 2-h continuous infusion (rats [10]): 4.2 min | Plasma concentration in initial blood sample ([4]; 30 s after IV bolus (CPMM 4 mg/kg, etomidate 2 mg/kg), n = 3 dogs): 4,130 ± 640 ng/ml | Plasma concentration 10 min after administration [4, 15]: 330 ± 41 ng/mL | Co [4, 15]: 5,180 ± 1,120 ng/ml | Decrease of plasma concentration from initial to final blood sample (2 h) ([4]; IV bolus, dogs): decreased by four orders of magnitude | Plasma concentration at 10 min as percentage of initial blood sample ([4]; IV bolus, dogs): 8% | Plasma concentration range during anesthetic recovery ([4]; dogs): approximately 500 ng/ml | Normalized plasma concentration as percentage of that of etomidate ([4]; one hour after hypnotic bolus, dogs): 7% | CL [4, 19]: 211 ± 26 mL/kg/min | Vss [4, 19]: 1,880 ± 569 ml·kg^−1 | t1/2 ([4]; parent drug, IV bolus, n = 3 dogs, apparent terminal half-life): 16.1 ± 2.99 min | AUC [4, 16]: 19,200 ± 2,590 min-ng ml^−1 | Clearance relative to etomidate (fold higher) ([4]; single bolus, dogs): 14 X | Terminal elimination half-life relative to etomidate ([4]; single bolus, dogs): 27% | Vss relative to total body water volume in dogs (600 ml/kg) ([4]; single bolus, dogs): 3 X | Normalized plasma concentration as percentage of that of etomidate ([4]; ten minutes after hypnotic bolus, dogs): 33% | Adrenal response to the second ACTH challenge compared to vehicle control ([6]; 180 min postinfusion, n = 4 dogs/group): normal adrenal response | Plasma cortisol concentrations compared to vehicle group over time ([6]; dogs): not significantly different from controls for all time points longer than 120 min after infusion termination | Half-time of adrenocortical recovery (normalized plasma cortisol) ([6]; after bolus plus 2-h infusion, n = 4 dogs): 215 min | Shared Hill coefficient of in vivo adrenocortical concentration-response curves [6]: -2.0 | ACTH-stimulated plasma cortisol concentration, fold higher vs etomidate group ([6]; equivalent postinfusion time points after 2-h infusion, dogs): 4- to 27 fold | In vivo IC50 for suppression of adrenocortical responsiveness to ACTH1-24 ([6]; plasma hypnotic concentration, dogs, Hill fit, estimated): 27 ng/mL | Stability of formulated drug [11]: no significant degradation over time | γ (slope parameter) (dogs [7]): 1.3 0.7 – 1.9 | EC anesthesia score 3 (dogs [7]): 2,798 1,840 – 4,256 ng/ml | Duration of LoRR (dogs [8]; 1 mg/kg IV bolus, n = 3 dogs): 1.8 ± 0.6 min | Duration of LoRR (dogs [8]; 12 mg/kg IV bolus, n = 4 dogs): 10.9 ± 0.7 min | Relative hypnotic potency CPMM vs etomidate (dogs [8]; dogs): half as potent; also recorded: approximately half that of etomidate | Bolus doses that induced LoRR in all dogs (dogs [8]; dogs, IV bolus): ≥ 1 mg/kg | Slope of duration of LoRR vs logarithm of dose (dogs [8]; dogs, IV bolus): 9.9 | X-intercept of duration of LoRR vs logarithm of dose (dogs [8]; dogs, IV bolus): 0.88 mg/kg | LoRR at lower doses (dogs [8]; dogs, IV bolus 0.25 mg/kg or 0.5 mg/kg): failed to induce LoRR in any dog | Time to induction of LoRR (dogs [8]; dogs, IV bolus at doses ≥1 mg/kg): < 15 s | ED50 for loss of righting reflexes (dogs [8]; dogs, IV bolus, approximate value from Hill fit): ~ 0.8 mg/kg

CC(C)c1cccc(C(C)C)c1O [propofol]
Dogs with myoclonus during infusion (dogs [1]; [18]): two dogs had myoclonus
